For 1 molecule, ability to dissolve results are on record in patent US20150196568A1, “SYSTEM FOR USE BY COMPOUNDING PHARMACISTS TO PRODUCE HORMONE REPLACEMENT MEDICINE CUSTOMIZED FOR EACH CUSTOMER” (priority 2003, published 2015).

This series in a line: ability of solvent combination to dissolve hormones. The conditions noted are these: combination of ethoxy diglycol and propylene glycol in any ratio, compared with either solvent alone. It is filed as physicochemical.

For `C[C@]12CC[C@H]3[C@@H](CCC4=CC(=O)CC[C@@]43C)[C@@H]1CC[C@@H]2O` [testosterone], the ability to dissolve result was “better than using any of the solvents alone”.
